This test has as its system BDF1 mice, Adenocarcinoma 755 s.c., tumor weight T/C. In words: NCI In Vivo Anticancer Drug Screen. Data for tumor model Adenocarcinoma 755 (subcutaneous) in B6D2F1 (BDF1) mice. Particulars: endpoint: mean tumor weight, higher = larger tumour. In a few lines: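 Values express treated (T) relative to vehicle-dosed control (C) animals, based on survival or tumour size measured after compound treatment of mice bearing a transplanted tumour.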

Setting [1] is: dose: 7.0 mg/kg/injection, schedule: Q01DX011 (ip), vehicle: carboxymethylcellulose (CMC).

Where “and” joins values, the source holds several entries; their conditions need not be identical. Equal values may be shown once.

Turning to `O=C=NC(c1ccccc1)(c1ccccc1)c1ccccc1`, the T/C reads like this: under setting [1], 102 % of control; (dose: 14.0 mg/kg/injection, schedule: Q01DX011 (ip), vehicle: carboxymethylcellulose (CMC)) 103 % of control; (dose: 28.0 mg/kg/injection, schedule: Q01DX011 (ip), vehicle: carboxymethylcellulose (CMC)) 86 % of control and 87 % of control; (dose: 112.0 mg/kg/injection, schedule: Q01DX011 (ip), vehicle: carboxymethylcellulose (CMC)) 71 % of control.

As to `CN(Cc1ccccc1)N=Nc1n[nH]nc1C(N)=O`, the T/C (dose: 50.0 mg/kg/injection, schedule: Q01DX011 (ip), vehicle: carboxymethylcellulose (CMC)) was 75 % of control; the T/C (dose: 100.0 mg/kg/injection, schedule: Q01DX011 (ip), vehicle: carboxymethylcellulose (CMC)) was 91 % of control; the T/C (dose: 200.0 mg/kg/injection, schedule: Q01DX011 (ip), vehicle: carboxymethylcellulose (CMC)) was 56 % of control.

Turning to `CCC1CN1CC1CO1` (stereo not given), the T/C reads like this: (dose: 5.0 mg/kg/injection, schedule: Q01DX011 (ip), vehicle: saline) 96 % of control; (dose: 10.0 mg/kg/injection, schedule: Q01DX011 (ip), vehicle: saline) 99 % of control.

Take `Cn1c(=O)c2[nH]c(NN)nc2n(C)c1=O`: the T/C (dose: 25.0 mg/kg/injection, schedule: Q01DX011 (ip), vehicle: methylcellulose (MC)) is 66 % of control.

`O=C(CCl)Nc1ncnc2nc[nH]c12`: for the setting “dose: 20.0 mg/kg/injection, schedule: Q01DX011 (ip), vehicle: methylcellulose (MC)”, the T/C was 84 % of control.

Take `CN1CC(=O)N=C1N`: the T/C is 47 % of control (dose: 250.0 mg/kg/injection, schedule: Q#A X022 (ip), vehicle: water); 88 % of control (dose: 375.0 mg/kg/injection, schedule: Q#A X022 (ip), vehicle: water); 36 % of control (dose: 500.0 mg/kg/injection, schedule: Q#A X022 (ip), vehicle: water); 67 % of control (dose: 750.0 mg/kg/injection, schedule: Q#A X022 (ip), vehicle: water); 72 % of control (dose: 1250.0 mg/kg/injection, schedule: Q#A X022 (ip), vehicle: water); 68 % of control (dose: 1500.0 mg/kg/injection, schedule: Q#A X022 (ip), vehicle: water).

For the compound `Nc1nc(SCc2ccccc2Cl)c2ncn(C3OC(CO)C(O)C3O)c2n1` (stereo not given), the T/C by setting is: (dose: 0.85 mg/kg/injection, schedule: Q01DX011 (ip), vehicle: methylcellulose (MC)) 69 % of control; (dose: 1.7 mg/kg/injection, schedule: Q01DX011 (ip), vehicle: methylcellulose (MC)) 22 % of control; (dose: 3.4 mg/kg/injection, schedule: Q01DX011 (ip), vehicle: methylcellulose (MC)) 26 % of control; (dose: 6.75 mg/kg/injection, schedule: Q01DX011 (ip), vehicle: methylcellulose (MC)) 4 % of control.

`Nc1ccc2cc(S(=O)(=O)O)cc(O)c2c1N=Nc1ccc(NC(=O)c2ccc(C(=O)Nc3ccc(N=Nc4c(N)ccc5cc(S(=O)(=O)O)cc(O)c45)c(S(=O)(=O)O)c3)cc2)cc1S(=O)(=O)O`: the T/C is, setting by setting: (dose: 3.0 mg/kg/injection, schedule: Q01DX011 (ip), vehicle: carboxymethylcellulose (CMC)) 100 % of control; under setting [1], 45 % of control; (dose: 15.0 mg/kg/injection, schedule: Q01DX011 (ip), vehicle: carboxymethylcellulose (CMC)) 56 % of control; (dose: 30.0 mg/kg/injection, schedule: Q01DX011 (ip), vehicle: carboxymethylcellulose (CMC)) 48 % of control.

On to `CCCCn1cnc2c(=O)[nH]cnc21`, for which the T/C (dose: 0.9 mg/kg/injection, schedule: Q01DX011 (ip), vehicle: carboxymethylcellulose (CMC)) is 76 % of control; the T/C (dose: 1.8 mg/kg/injection, schedule: Q01DX011 (ip), vehicle: carboxymethylcellulose (CMC)) is 83 % of control; the T/C (dose: 1.8 mg/kg/injection, schedule: Q01DX011 (oral), vehicle: carboxymethylcellulose (CMC)) is 76 % of control; the T/C (dose: 3.7 mg/kg/injection, schedule: Q01DX011 (ip), vehicle: carboxymethylcellulose (CMC)) was 91 % of control; the T/C (dose: 3.7 mg/kg/injection, schedule: Q01DX011 (oral), vehicle: carboxymethylcellulose (CMC)) was 107 % of control; the T/C (dose: 7.5 mg/kg/injection, schedule: Q01DX011 (ip), vehicle: carboxymethylcellulose (CMC)) was 63 % of control. For the same compound, the T/C was 82 % of control (dose: 7.5 mg/kg/injection, schedule: Q01DX011 (oral), vehicle: carboxymethylcellulose (CMC)); 90 % of control (dose: 15.0 mg/kg/injection, schedule: Q01DX011 (oral), vehicle: carboxymethylcellulose (CMC)); 60 % of control (dose: 40.0 mg/kg/injection, schedule: Q01DX001 (ip), vehicle: other); 111 % of control (dose: 66.1 mg/kg/injection, schedule: Q01DX011 (ip), vehicle: other); 45 % of control (dose: 81.0 mg/kg/injection, schedule: Q01DX001 (ip), vehicle: other); 90 % of control (dose: 132.2 mg/kg/injection, schedule: Q01DX011 (ip), vehicle: other). The T/C is 58 % of control (dose: 132.25 mg/kg/injection, schedule: Q01DX011 (ip), vehicle: carboxymethylcellulose (CMC)); 70 % of control (dose: 132.25 mg/kg/injection, schedule: Q01DX011 (oral), vehicle: carboxymethylcellulose (CMC)); 122 % of control (dose: 162.0 mg/kg/injection, schedule: Q01DX001 (ip), vehicle: other); 105 % of control (dose: 264.5 mg/kg/injection, schedule: Q01DX011 (ip), vehicle: carboxymethylcellulose (CMC)); 76 % of control (dose: 264.5 mg/kg/injection, schedule: Q01DX011 (ip), vehicle: other); 86 % of control (dose: 264.5 mg/kg/injection, schedule: Q01DX011 (oral), vehicle: carboxymethylcellulose (CMC)). The T/C reads like this: (dose: 324.0 mg/kg/injection, schedule: Q01DX001 (ip), vehicle: other) 102 % of control; (dose: 529.0 mg/kg/injection, schedule: Q01DX011 (oral), vehicle: carboxymethylcellulose (CMC)) 89 % of control.

For the compound `COc1cc2c3c(c4cc(OC)c(OC)cc4c2cc1OC)CN1CCC[C@H]1C3`, the T/C (dose: 8.8 mg/kg/injection, schedule: Q01DX006 (ip), vehicle: water) is 89 % of control and 71 % of control; the T/C (dose: 20.0 mg/kg/injection, schedule: Q01DX006 (ip), vehicle: water) was 50 % of control.

In the case of `O=C(CCBr)N1CN(C(=O)CCBr)CN(C(=O)CCBr)C1`, the T/C (dose: 57.0 mg/kg/injection, schedule: Q01DX011 (ip), vehicle: methylcellulose (MC)) was 117 % of control; the T/C (dose: 113.0 mg/kg/injection, schedule: Q01DX011 (ip), vehicle: methylcellulose (MC)) was 97 % of control; the T/C (dose: 225.0 mg/kg/injection, schedule: Q01DX011 (ip), vehicle: methylcellulose (MC)) is 80 % of control.

Values taken from PubChem BioAssay AID180 (DTP/NCI, 2004).
